Measured values as given in patent US20140080772A1, “TREATMENTS FOR MELANOMA” (The Board of Regents of the University of Texas System, priority 2012, published 2014).
pIC50: −log10 of the molar value. Where two headings read alike, the source gives them in different places.

Experiments:
[1] = mouse, in vivo; cited from earlier work
KU812 = details: 20 mg/kg/day; cited from earlier work
WT Bcr-Abl [2] = molecular target: T1, WT Bcr-Abl (Homo sapiens, UniProt P00519); details: read-out: IC50, Bcr-Abl autophosphorylation and downstream kinase activity; K562 cells; cited from earlier work
Target sequence in this assay (P00519 with tags, fused parts or gaps): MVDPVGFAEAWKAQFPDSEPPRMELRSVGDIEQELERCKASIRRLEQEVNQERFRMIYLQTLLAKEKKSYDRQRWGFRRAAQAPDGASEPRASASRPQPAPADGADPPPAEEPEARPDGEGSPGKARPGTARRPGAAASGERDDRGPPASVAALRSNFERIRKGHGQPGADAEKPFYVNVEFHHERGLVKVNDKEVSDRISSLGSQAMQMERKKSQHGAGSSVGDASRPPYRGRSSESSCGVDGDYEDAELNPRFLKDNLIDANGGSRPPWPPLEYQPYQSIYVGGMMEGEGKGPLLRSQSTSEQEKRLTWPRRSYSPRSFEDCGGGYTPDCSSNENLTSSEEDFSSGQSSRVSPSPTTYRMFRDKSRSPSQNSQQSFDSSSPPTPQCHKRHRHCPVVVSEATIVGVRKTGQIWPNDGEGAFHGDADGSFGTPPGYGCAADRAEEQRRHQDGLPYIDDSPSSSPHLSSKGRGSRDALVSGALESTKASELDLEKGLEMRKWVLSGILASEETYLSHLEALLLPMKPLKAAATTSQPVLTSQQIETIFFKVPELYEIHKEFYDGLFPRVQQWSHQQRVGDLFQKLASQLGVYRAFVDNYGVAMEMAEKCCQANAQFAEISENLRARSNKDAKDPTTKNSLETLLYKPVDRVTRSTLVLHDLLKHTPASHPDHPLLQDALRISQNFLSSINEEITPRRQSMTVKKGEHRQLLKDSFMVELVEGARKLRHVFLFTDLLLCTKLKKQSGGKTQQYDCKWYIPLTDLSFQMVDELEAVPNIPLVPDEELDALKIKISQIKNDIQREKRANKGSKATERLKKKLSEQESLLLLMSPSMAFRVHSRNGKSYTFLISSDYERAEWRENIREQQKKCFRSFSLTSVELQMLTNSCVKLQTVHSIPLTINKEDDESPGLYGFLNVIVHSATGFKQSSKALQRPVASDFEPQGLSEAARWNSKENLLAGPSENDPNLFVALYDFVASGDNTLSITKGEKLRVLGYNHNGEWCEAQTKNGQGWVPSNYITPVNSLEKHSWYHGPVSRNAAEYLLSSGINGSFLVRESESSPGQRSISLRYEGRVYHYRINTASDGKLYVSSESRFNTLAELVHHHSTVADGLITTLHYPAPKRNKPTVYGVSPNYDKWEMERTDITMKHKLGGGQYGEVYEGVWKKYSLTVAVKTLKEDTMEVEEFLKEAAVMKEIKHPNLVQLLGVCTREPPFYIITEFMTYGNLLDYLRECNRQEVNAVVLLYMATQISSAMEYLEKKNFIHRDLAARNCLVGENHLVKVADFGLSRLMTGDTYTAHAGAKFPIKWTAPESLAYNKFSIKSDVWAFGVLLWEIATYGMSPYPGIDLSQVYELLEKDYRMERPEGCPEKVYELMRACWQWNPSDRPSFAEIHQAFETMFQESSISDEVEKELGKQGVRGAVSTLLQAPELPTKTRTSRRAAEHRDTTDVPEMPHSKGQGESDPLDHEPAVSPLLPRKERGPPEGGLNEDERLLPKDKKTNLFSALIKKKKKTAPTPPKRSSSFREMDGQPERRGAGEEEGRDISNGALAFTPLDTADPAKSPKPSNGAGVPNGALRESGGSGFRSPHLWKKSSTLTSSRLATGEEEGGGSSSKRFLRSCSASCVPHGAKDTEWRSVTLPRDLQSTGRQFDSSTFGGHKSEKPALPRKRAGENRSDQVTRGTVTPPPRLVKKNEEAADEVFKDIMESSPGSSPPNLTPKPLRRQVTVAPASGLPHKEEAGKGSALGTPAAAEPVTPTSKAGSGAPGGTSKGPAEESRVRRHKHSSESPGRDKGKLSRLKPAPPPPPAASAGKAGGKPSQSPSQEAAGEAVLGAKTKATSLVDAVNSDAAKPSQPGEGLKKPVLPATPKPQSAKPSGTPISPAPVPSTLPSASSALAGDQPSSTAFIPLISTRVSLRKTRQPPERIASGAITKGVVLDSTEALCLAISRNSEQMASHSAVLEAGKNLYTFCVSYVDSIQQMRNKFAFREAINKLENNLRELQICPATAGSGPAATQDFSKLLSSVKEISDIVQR

WT Bcr-Abl [3] = molecular target: T1, WT Bcr-Abl; details: read-out: IC50, Bcr-Abl autophosphorylation and downstream kinase activity; 293T cells; cited from earlier work
Target sequence in this assay (P00519 28-1130 limits assumed): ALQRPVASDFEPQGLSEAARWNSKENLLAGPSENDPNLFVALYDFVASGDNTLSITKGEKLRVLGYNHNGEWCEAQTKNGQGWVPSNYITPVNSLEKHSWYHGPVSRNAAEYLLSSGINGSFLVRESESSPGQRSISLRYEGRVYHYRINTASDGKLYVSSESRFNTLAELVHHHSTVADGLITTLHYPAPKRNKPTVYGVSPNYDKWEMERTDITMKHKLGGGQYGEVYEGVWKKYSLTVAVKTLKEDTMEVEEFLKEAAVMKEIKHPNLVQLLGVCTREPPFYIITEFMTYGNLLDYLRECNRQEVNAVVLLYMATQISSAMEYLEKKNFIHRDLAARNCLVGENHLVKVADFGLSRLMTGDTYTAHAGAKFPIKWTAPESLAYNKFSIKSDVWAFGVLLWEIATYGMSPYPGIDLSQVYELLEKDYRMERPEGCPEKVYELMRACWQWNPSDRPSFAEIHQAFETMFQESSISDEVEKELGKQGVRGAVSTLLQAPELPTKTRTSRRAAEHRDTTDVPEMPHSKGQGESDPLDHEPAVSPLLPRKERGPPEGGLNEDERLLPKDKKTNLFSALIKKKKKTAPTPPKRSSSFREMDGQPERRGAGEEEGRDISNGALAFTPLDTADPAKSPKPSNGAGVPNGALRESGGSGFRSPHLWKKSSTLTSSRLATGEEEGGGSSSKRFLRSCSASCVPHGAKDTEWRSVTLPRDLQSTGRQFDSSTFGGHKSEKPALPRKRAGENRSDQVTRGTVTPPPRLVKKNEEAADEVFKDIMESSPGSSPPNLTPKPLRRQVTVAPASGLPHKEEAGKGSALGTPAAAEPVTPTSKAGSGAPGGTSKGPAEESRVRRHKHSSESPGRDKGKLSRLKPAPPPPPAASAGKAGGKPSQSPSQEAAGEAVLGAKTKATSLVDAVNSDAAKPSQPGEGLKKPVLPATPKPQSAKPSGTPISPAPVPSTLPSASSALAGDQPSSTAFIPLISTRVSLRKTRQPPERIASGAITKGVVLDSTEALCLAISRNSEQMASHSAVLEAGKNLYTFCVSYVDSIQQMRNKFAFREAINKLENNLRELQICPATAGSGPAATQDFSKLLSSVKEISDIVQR

[4] = system: human melanocytes (hMEL) and human umbilical cord blood cells (hUCB)
Description: (§1) Melanomas and hUCB were treated with 50 μM of cardiac glycosides or DMSO for 72 h in triplicates. Viability was measured with CellTiter-Glo. […] All error bars denote SD.
(§2) In these in vitro assays, cells were treated with various doses of cardiac glycosides or DMSO for 72 hr in triplicate. Viability was measured with CellTiter-Glo.
(§3) Again, cells were treated in vitro with various doses of RO 31-8220 or DMSO for 72 hr in triplicates. Viability was measured with CellTiter-Glo.

PKCα = PKCα (Homo sapiens, UniProt P17252); details: cited from earlier work
[5] = system: JNK, glycogen synthase, MAPK, ERK2; details: rat adipocytes and L6 myotubes; cited from earlier work
MAPKAP-K1b = MAPKAP-K1b (Homo sapiens, UniProt P51812); details: cited from earlier work
[6] = system: primary melanomas (M715, M711, M741 and M405); test: Dose response viability assay (CellTiter-Glo) on primary human melanoma cells; assay type: cell-based; details: 72 hr, triplicate
Description: as §1, §2, §3

S6K1 = S6K1 (Homo sapiens, UniProt P23443); details: cited from earlier work
[7] = system: voltage-dependent Na+ channels; details: cited from earlier work
[8] = system: M481 metastatic melanoma cells; test: M481 melanoma xenograft tumor growth in NSG mice; assay type: in vivo
Description: M481 metastatic melanoma cells were implanted in s.c. tissue on right flanks of NSG mice. […] Tumors were measured every 2-3 day with calipers.
(FIG. 6A) M481 efficiently metastasizing melanoma cells were implanted in s.c. tissue on right flanks of NSG mice. […] Tumors were measured every 2-3 day with calipers. Mean±SD is reported.
Subcutaneous injections of human melanoma cells were performed in each flank and the interscapular region of NOD.CB17-Prkdcscid Il2rgtm1Wjl/SzJ (NOD/SCID IL2Rγ^null, NSG) mice (Jackson Laboratories) in a final volume of 50 μl.
In these experiments metastatic melanoma cells were implanted in s.c. tissue on right flanks of NSG mice. […] Tumors were measured every 2-3 day with calipers and bioluminescence imaging was performed at day 14.
To address whether inhibition of Lyn kinase can block the ability of melanoma cells to grow in our xenograft model, they performed an in vivo drug treatment. NSG mice were injected with a 100-cell dose of a metastatic melanoma, M481, which expressed a GFP-luciferase construct. […] We tested two different doses, 4 mg/kg body mass/day and 20 mg/kg/day. Control mice were injected with 5% DMSO solution.

[9] = system: M214 metastatic melanoma cells; assay type: in vivo, NSG mice; details: digitoxin 0.5 mg/kg/day; dacarbazine 5 mg/kg every other day; alone or in combination
Description: M214 metastatic melanoma cells were implanted in s.c. tissue on right flanks of NSG mice. When tumors became palpable, mice were randomized to four different treatments. […] Control mice received equivalent volume of DMSO. […] Tumors were measured every 2-3 day with calipers. Mean^±SD is reported (*P<0.05, **P<0.005, ***P<0.0005, ****P<0.0001, ns: not significant; two-tailed Student's t test). […] The statistical significance of differences between mean values was assessed by the Student's t-test.
In these experiments, metastatic melanoma cells were injected subcutaneously in the right flanks of immunocompromised NSG mice. When tumors became palpable, mice were randomized to four different treatments. […] Control mice received equivalent volume of DMSO.

[10] = in vivo; cited from earlier work
[11] = 72 hr, triplicate, CellTiter-Glo

Chain of MAPKAP-K1b (P51812 whole entry, species assumed): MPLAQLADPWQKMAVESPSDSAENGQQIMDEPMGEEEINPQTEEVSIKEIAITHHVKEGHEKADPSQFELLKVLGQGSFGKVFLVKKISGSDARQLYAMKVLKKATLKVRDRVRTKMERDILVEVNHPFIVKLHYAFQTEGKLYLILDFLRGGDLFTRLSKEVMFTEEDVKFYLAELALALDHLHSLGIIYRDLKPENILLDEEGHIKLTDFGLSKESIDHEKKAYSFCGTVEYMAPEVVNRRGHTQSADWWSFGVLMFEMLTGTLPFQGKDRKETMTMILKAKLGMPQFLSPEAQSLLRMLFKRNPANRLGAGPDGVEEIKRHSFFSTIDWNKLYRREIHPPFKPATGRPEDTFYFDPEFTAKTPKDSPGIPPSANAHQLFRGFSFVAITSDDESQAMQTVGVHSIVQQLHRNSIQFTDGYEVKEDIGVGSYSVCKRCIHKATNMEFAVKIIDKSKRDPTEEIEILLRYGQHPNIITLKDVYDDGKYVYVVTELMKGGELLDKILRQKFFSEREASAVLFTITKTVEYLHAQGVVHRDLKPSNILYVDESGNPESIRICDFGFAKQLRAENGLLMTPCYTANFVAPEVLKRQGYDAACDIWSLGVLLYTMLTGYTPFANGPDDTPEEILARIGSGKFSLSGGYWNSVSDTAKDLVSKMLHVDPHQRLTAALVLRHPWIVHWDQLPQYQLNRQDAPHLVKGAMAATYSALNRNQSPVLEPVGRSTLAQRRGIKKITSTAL
Chain of S6K1 (P23443 whole entry, species assumed): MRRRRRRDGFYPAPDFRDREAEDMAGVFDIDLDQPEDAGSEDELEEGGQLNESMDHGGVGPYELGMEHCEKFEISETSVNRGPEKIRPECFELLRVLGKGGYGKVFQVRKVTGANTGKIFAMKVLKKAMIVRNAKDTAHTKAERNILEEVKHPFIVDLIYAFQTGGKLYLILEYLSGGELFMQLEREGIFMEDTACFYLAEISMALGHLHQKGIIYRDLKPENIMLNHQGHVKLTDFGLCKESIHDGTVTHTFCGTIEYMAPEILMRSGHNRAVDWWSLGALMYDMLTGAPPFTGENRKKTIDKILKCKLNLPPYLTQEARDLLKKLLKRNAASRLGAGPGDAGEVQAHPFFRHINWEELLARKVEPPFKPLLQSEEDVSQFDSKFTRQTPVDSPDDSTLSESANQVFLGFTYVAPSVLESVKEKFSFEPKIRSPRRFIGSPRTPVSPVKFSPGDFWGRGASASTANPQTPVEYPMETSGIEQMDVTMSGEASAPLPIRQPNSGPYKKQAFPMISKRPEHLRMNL

## Cc1ccc(NC(=O)c2ccc(CN3CC[C@H](N(C)C)C3)c(C(F)(F)F)c2)cc1Nc1nccc(-c2cncnc2)n1 [Bafetinib, bafetinib]
[1]
  bioavailability value (BA): 32%
  maximal tolerated dose: 200 mg/kg/day
KU812
  adverse effects: without adverse effects
WT Bcr-Abl [2]
  pIC50: 7.96
WT Bcr-Abl [3]
  pIC50: 7.66

## Cn1cc(C2=C(c3cn(CCCSC(=N)N)c4ccccc34)C(=O)NC2=O)c2ccccc21 [RO 31-8220]
[4]; [11]
  toxicity to normal cells (viability): not to normal cells
PKCα
  pIC50: 7.48
[5]
  effect on JNK and glycogen synthase: Activates
  effect on MAPK and ERK2: inhibits
MAPKAP-K1b
  pIC50: 8.52
[6]
  toxicity to primary melanomas (viability): toxic to all tested primary melanomas
S6K1
  pIC50: 7.42
[7]
  inhibition of voltage-dependent Na+ channels: in the micromolar range
[8]; RO 31-8220 3 mg/kg i.p. vs DMSO
  tumor growth: inhibited the growth

## C[C@H]1O[C@@H](O[C@H]2[C@@H](O)C[C@H](O[C@H]3[C@@H](O)C[C@H](O[C@H]4CC[C@@]5(C)[C@H](CC[C@@H]6[C@@H]5CC[C@]5(C)[C@@H](C7=CC(=O)OC7)CC[C@]65O)C4)O[C@@H]3C)O[C@@H]2C)C[C@H](O)[C@@H]1O [digitoxin]
[9]
  growth of human melanoma xenografts: slowed the growth
[4]; [11]
  toxicity to normal cells (viability): not to normal cells
[6]
  toxicity to primary melanomas (viability): toxic to all tested primary melanomas
[8]; digitoxin 0.5 mg/kg i.p. vs DMSO
  tumor growth: inhibited the growth

## C[C@H]1O[C@@H](O[C@H]2[C@@H](O)C[C@H](O[C@H]3[C@@H](O)C[C@H](O[C@H]4CC[C@@]5(C)[C@H](CC[C@@H]6[C@@H]5C[C@@H](O)[C@]5(C)[C@@H](C7=CC(=O)OC7)CC[C@]65O)C4)O[C@@H]3C)O[C@@H]2C)C[C@H](O)[C@@H]1O [digoxin]
[4]
  toxicity to normal cells (viability): not to normal cells
[6]
  toxicity to primary melanomas (viability): toxic to all tested primary melanomas
[10]
  half-life: about 36 hours
  plasma concentration at which adverse effects are rare: < 0.8 ng/mL

## C[C@H]1O[C@@H](O[C@H]2[C@@H](O)C[C@H](O[C@H]3[C@@H](O)C[C@H](O[C@H]4CC[C@@]5(C)[C@H](CC[C@@H]6[C@@H]5CC[C@]5(C)[C@@H](C7=CC(=O)OC7)[C@@H](O)C[C@]65O)C4)O[C@@H]3C)O[C@@H]2C)C[C@H](O)[C@@H]1O [gitoxin]
[4]; [11]
  toxicity to normal cells (viability): not to normal cells
[6]
  toxicity to primary melanomas (viability): toxic to all tested primary melanomas
